In ChEMBL document CHEMBL1201862, “PubChem BioAssay data set” (2004):
Calls of active or inactive are those of the source.

Legend:
[1] = biological target: Heat shock protein HSP 90-alpha (Homo sapiens, UniProt P07900); type: functional, organism-based
[2] = growth suppression of PTEN-null colon cells, dose response, cell-based, HCT116 PTEN knockout (AID 1047); type: functional;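 also: HCT116 colon tumor cells with PTEN knocked out; cells exposed to compound for 60 hours before readout; potency for loss of cell viability measured by luminescence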
INS1 = experiment: beta cell apoptosis inhibitors, cytokine rescue, dose response, luminescence, retest (AID 449756); type: functional, cell-based; conditions: Rattus norvegicus;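 also: cell death triggered by IL-1 beta plus TNF-alpha plus IFN-gamma mixture; protective hits raise ATP signal compared with cytokine alone wells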
[3] = growth suppression of beta-catenin-knockout colon cells, dose response, cell-based, HCT116, human colon tumor (AID 1045); type: functional;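 also: HCT116 colon tumor cells with beta catenin knocked out; cells exposed to compound for 60 hours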
[4] = biological target: T1, Carboxy-terminal domain RNA polymerase II polypeptide A small phosphatase 1 (Homo sapiens, UniProt Q9GZU7); experiment: inhibitors of CTDSP1, concentration-response testing, biochemical assay, absorbance-based, actives from ultra-high-throughput screening (AID 540297); type: functional
T1 sequence (Q9GZU7 whole entry): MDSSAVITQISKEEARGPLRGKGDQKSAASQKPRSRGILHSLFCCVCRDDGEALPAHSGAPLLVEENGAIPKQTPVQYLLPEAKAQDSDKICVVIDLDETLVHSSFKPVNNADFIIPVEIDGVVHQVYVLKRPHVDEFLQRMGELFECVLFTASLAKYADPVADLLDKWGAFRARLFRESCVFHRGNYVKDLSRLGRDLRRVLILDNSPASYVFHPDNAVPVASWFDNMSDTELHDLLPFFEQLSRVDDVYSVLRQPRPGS

[5] = Luminescence Cell-Based Dose Confirmation HTS to Identify Activators of 5'UTR Stem-Loop Driven Alpha-Synuclein mRNA Translation in H4 Neuroglioblastoma Cells. [Related pubchem assays: 1829 (Project Summary), 1814 (Primary HTS)]; type: functional
[6] = Luminescence Cell-Based Dose Response HTS to Identify Activators of Luciferase Translation or Activity in H4 […] Cells. [Related pubchem assays: 1829 (Project Summary), 1814 (Primary HTS)]; type: functional
H4 = experiment: Luminescence Cell-Based Dose Response HTS to Identify Activators of 5'UTR Stem-Loop Driven Prion Protein mRNA Translation in H4 Neuroglioblastoma Cells. [Related pubchem assays: 1829 (Project Summary), 1814 (Primary HTS)]; type: functional; conditions: Homo sapiens
cells [7] = type: functional, cell-based
cells [8] = type: functional, cell-based; remark: listed apart in the source
[9] = biological target: T2, Heat shock factor protein 1 (Mus musculus, UniProt P38532); experiment: inhibition of MG132-induced HSE-luciferase signal, confirmation, cell-based, NIH3T3, luminescence, dose retest (AID 2382); type: functional;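 also: NIH3T3 fibroblasts with HSF1-driven luciferase reporter stressed by proteasome inhibitor MG132; luminescence from HSF1-driven luciferase expression after 8 hours of MG132 stress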
T2 sequence (P38532 whole entry): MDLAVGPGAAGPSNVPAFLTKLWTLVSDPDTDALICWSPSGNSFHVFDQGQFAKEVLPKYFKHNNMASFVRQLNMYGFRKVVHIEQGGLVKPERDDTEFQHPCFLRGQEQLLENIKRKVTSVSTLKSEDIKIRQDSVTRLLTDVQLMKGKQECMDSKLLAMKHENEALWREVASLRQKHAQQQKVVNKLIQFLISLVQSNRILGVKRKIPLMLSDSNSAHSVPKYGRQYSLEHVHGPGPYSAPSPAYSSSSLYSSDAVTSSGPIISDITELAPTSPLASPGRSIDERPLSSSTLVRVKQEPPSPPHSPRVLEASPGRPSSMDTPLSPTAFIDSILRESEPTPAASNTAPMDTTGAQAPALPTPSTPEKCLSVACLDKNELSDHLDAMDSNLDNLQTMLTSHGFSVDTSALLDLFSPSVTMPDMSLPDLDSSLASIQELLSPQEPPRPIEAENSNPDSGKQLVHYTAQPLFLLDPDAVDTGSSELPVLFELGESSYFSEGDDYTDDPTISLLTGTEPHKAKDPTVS

[10] = microbe, parasite or virus in culture; type: functional; conditions: Mycobacterium tuberculosis
[11] = biological target: T3, Polyadenylate-binding protein 1 (Homo sapiens, UniProt P11940); experiment: PABP1 MLLE–PAM2 interaction inhibitors, dose response, miRNA deadenylation inhibitor project, biochemical, fluorescence polarization, Cy5-PAM2 peptide, secondary (AID 602260); type: functional; conditions: read-out: IC50_Mean
[12] = biological target: T3, Polyadenylate-binding protein 1; experiment: PABP1 MLLE–PAM2 binding inhibitor potency, dose response, biochemical, fluorescence polarization, FITC-PAM2 peptide (AID 602259); type: functional; conditions: read-out: IC50_Mean
[13] = biological target: T4, RNA-binding protein pos-1 (Caenorhabditis elegans, UniProt G5EF15); experiment: inhibitors of POS-1/mex-3 RNA binding, dose response, biochemical, fluorescence polarization (AID 1964);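 also: purified POS-1 fused to maltose binding protein made in E. coli; potency of compounds blocking POS-1 binding to fluorescent RNA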
T4 sequence (G5EF15 whole entry): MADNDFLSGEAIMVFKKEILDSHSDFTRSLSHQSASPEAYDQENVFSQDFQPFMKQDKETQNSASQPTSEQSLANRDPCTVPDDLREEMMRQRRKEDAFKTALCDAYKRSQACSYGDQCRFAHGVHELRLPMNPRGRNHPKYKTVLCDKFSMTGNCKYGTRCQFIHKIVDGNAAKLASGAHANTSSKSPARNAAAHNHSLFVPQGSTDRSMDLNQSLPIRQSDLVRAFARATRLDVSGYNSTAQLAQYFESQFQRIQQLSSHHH

[14] = biological target: T5, Zinc finger protein mex-5 (Caenorhabditis elegans, UniProt Q9XUB2); experiment: MEX-5/TCR-2 RNA interaction inhibitors, dose response, biochemical, C. elegans, fluorescence polarization (AID 1960)
T5 sequence (Q9XUB2 whole entry): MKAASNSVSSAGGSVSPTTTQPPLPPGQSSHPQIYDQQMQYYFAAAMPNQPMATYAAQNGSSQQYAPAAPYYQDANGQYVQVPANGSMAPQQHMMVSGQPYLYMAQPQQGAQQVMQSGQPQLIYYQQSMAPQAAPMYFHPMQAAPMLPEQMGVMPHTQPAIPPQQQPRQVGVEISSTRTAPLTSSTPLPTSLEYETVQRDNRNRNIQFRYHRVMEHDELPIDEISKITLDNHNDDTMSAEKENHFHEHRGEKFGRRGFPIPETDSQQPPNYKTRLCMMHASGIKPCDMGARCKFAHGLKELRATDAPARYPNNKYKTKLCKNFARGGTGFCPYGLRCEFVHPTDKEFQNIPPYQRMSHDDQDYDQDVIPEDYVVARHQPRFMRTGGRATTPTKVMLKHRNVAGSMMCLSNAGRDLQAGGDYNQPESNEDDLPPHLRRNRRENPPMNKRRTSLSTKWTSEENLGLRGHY

[15] = biological target: Glucose-6-phosphate 1-dehydrogenase (Homo sapiens, UniProt P11413); experiment: human G6PD enzyme inhibitors, dose response, selectivity assay for P. falciparum G6PD inhibitor project, biochemical, fluorescence (AID 504792); type: functional
[16] = biological target: T6, Rac GTPase-activating protein 1 (Homo sapiens, UniProt Q9H0H5); experiment: MgcRacGAP GTPase-activating activity inhibitors, confirmation, biochemical, ADP Hunter fluorescence, primary and confirmatory (AID 624330); type: functional
T6 sequence (Q9H0H5 whole entry): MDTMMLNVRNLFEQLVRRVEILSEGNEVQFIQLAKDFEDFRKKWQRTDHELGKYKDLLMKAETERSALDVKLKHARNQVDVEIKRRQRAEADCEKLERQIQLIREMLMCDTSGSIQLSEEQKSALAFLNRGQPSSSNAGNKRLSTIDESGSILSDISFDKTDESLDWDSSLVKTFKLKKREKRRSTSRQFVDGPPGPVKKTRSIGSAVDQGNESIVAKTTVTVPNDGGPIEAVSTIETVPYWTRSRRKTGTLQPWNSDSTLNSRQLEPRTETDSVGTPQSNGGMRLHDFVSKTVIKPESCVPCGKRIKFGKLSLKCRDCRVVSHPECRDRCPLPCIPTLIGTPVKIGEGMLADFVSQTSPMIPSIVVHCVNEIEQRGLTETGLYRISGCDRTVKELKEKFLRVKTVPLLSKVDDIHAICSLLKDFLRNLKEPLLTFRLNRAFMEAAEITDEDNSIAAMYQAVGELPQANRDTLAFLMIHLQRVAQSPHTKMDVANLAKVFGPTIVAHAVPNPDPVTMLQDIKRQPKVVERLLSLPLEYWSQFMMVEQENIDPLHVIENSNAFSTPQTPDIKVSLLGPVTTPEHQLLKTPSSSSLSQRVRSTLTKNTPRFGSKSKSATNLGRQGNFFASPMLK

[17] = biological target: T7, Ubiquitin-conjugating enzyme E2 N (Homo sapiens, UniProt P61088); type: functional;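 also: Dose-response confirmation in a TR-FRET assay detecting UBC13-driven polyubiquitin chain formation, inhibition measured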
T7 sequence (P61088 whole entry): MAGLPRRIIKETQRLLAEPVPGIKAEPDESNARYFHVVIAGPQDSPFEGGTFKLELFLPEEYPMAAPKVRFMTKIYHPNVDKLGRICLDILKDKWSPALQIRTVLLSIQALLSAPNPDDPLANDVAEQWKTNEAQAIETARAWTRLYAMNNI

[18] = P. falciparum Dd2 growth inhibitors, dose response, SYBR Green, cherry-picked samples (AID 1159567); type: functional, cell-based

T3 sequence (P11940 whole entry): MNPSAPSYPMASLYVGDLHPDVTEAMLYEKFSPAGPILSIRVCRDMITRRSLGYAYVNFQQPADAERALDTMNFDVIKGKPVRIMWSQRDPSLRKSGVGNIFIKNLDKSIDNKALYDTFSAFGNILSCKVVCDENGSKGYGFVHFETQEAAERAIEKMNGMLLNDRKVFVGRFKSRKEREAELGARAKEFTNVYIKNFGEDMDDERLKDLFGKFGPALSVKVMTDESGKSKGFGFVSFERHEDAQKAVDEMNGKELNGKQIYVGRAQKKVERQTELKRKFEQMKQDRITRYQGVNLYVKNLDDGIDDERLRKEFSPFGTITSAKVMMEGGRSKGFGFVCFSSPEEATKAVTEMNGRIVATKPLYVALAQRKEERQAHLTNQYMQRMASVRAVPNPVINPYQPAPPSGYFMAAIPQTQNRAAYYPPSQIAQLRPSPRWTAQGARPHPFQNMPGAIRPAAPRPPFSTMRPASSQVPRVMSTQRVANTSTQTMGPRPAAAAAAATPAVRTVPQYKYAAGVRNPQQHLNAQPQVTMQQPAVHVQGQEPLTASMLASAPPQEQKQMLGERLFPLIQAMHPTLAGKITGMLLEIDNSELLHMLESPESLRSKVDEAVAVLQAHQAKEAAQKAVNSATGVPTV
Chain of Glucose-6-phosphate 1-dehydrogenase (P11413 whole entry): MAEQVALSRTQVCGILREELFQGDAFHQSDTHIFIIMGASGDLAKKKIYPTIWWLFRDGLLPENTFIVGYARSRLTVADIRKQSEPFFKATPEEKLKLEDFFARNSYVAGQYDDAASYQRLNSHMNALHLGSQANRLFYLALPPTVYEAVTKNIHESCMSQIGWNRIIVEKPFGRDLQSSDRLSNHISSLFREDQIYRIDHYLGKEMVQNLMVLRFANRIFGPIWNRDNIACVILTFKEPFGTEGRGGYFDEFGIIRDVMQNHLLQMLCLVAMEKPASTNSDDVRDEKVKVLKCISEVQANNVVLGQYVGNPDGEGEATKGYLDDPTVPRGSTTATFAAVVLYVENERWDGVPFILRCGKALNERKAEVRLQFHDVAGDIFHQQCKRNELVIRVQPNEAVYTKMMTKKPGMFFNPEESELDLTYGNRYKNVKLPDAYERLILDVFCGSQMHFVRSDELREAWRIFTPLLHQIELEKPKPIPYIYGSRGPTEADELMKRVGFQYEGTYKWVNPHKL

SMILES: CCN1C/C(=C/c2cccc([N+](=O)[O-])c2)C(=O)/C(=C/c2cccc([N+](=O)[O-])c2)C1
- AC50 [1]: 4.21 µM (active)
- EC50 [2]: 0.085 µM (active)
- AC50 (INS1): 2.24 µM (active)
- EC50 [3]: 0.062 µM (active)

SMILES: O=C1CC(=O)N2N=C(c3ccc([N+](=O)[O-])cc3)SC2=N1
- IC50 [4]: 5.67 µM (active)

SMILES: c1ccc(-c2ccc3c(n2)CCCO3)cc1
- EC50 [5]: 47.7 µM (active)
- EC50 [6]: 55.5 µM (active)
- EC50 (H4): 7.05 µM (active)

SMILES: Cc1ccc2nc(-c3ccccc3NC(=O)CCC(=O)O)c(O)nc2c1
- EC50 (cells [7]): > 350 µM (not active)
- EC50 (cells [8]): > 350 µM (not active)
- EC50 [9]: > 195 µM (not active)

SMILES: O=C(OCc1cc(=O)n2c(n1)sc1ccccc12)c1ccc2c(=O)n3c(nc2c1)CCC3
- IC50 [4]: 5.85 µM (active)

SMILES: Cn1c(N=C(S)Nc2ccccc2)nc2ccccc21
- CC50 [10]: > 40 µM (active)

SMILES: Cc1ccc(C(=O)Cn2nnc3ccccc32)cc1
- EC50 [5]: 0.276 µM (active)
- EC50 [6]: 0.325 µM (active)
- EC50 (H4): 77.2 µM (active)

SMILES: Cc1cc(Nc2cc(Cl)nc(Sc3ccc(NC(=O)C4CC4)cc3)n2)[nH]n1
- CC50 [10]: 35.8 µM (active)

SMILES: CCOc1ccc2c(c1)-c1c(ssc1=S)C(C)(C)N2C(=O)CSC1=NCCS1
- IC50 [11]: > 66 µM (inactive)
- IC50 [12]: > 66 µM (inactive)

SMILES: O=C(CCc1ccccc1)NC(=S)Nc1ccc(S(=O)(=O)N2CCOCC2)cc1
- IC50 [11]: > 66 µM (inactive)
- IC50 [12]: > 66 µM (inactive)

SMILES: COc1ccc(C(=S)Nc2ccc(C)cc2)cc1
- IC50 [11]: > 66 µM (inactive)
- IC50 [12]: > 66 µM (inactive)

SMILES: COCCNC(=O)C(c1ccncc1)N(Cc1ccccc1)C(=O)Cn1nnc2ccccc21 (stereo not drawn)
- EC50 [5]: 4.27 µM (active)
- EC50 [6]: 15.7 µM (active)
- EC50 (H4): 1.08 µM (active)

SMILES: Cc1ccc(F)cc1NC(=O)c1sc2ncn(CC(=O)N3CCN(c4ccccn4)CC3)c(=O)c2c1C
- EC50 [5]: > 120 µM (not active)
- EC50 [6]: > 120 µM (not active)
- EC50 (H4): > 120 µM (not active)

SMILES: CC1CC(C)CN(C(=O)COC(=O)/C=C/c2ccco2)C1 (stereo not drawn)
- IC50 [4]: 19.9 µM (active)

SMILES: CCCCc1cn([C@@H](CCCCN)C(=O)N2CCNCC2)nn1
- EC50 [13]: 31.9 µM (active)
- EC50 [14]: 26.1 µM (active)
- IC50 [11]: > 66 µM (inactive)
- IC50 [12]: 21 µM (inactive)

SMILES: CC(SCC(=O)Nc1ccccc1)c1nc(O)c2ccccc2n1 (stereo not drawn)
- IC50 [15]: 22.3 µM (inactive)

SMILES: NC(=S)N=Nc1c(O)[nH]c2ccc(F)cc12
- IC50 [11]: > 66 µM (inactive)
- IC50 [12]: > 66 µM (inactive)

SMILES: CCN(CC)c1nc(N)nc(NS(=O)(=O)c2ccc(Cl)cc2)n1
- IC50 [15]: > 80 µM (inactive)

SMILES: O=c1c2ccccc2nnn1COc1ccc(Cl)cc1Br
- EC50 [5]: 0.383 µM (active)
- EC50 [6]: 29.7 µM (active)
- EC50 (H4): 15.6 µM (active)

SMILES: N#Cc1ccccc1OCCCN1CCC(Cc2ccccc2)CC1
- IC50 [16]: 132 µM (active)
- EC50 (cells [7]): > 350 µM (not active)
- EC50 (cells [8]): > 350 µM (not active)

SMILES: O=[N+]([O-])c1cccc(C(=S)N2CCN(c3ccccc3)CC2)c1
- IC50 [11]: > 66 µM (inactive)
- IC50 [12]: > 66 µM (inactive)

SMILES: CCCS(=O)(=O)N1CCN=C1SCc1cccnc1
- IC50 [11]: > 66 µM (inactive)
- IC50 [12]: > 66 µM (inactive)

SMILES: O=[N+]([O-])c1ccc2c(c1)-c1ccccc1C2O (stereo not drawn)
- IC50 [15]: > 80 µM (inactive)

SMILES: CON=C(C(=O)NC1C(=O)N2C(C(=O)O)=C(CSc3nc(=O)c(=O)[nH]n3C)CSC12)c1csc(N)n1 (stereo not drawn)
- IC50 [4]: 2.89 µM (active)

SMILES: COc1ccc(Cl)cc1Nc1nc(-c2sc(NC(=O)c3ccccc3)nc2C)cs1
- EC50 [2]: 7.12 µM (active)
- EC50 [3]: 10.3 µM (active)

SMILES: CCOc1ccc(Cl)cc1/C=N/NC(N)=O
- IC50 [17]: > 20 µM (inactive)
- IC50 [15]: > 80 µM (inactive)

SMILES: COCC(=O)N1[C@H](CO)[C@@H](c2ccccc2)C12CN(Cc1cc(F)ccc1F)C2
- AC50 [18]: 18.1 µM (active)

SMILES: CN1C(=O)c2cc(NC(=O)c3cnccn3)ccc2OC[C@H]2O[C@@H](CC(=O)N[C@H]3CCN(Cc4ccccc4)C3)CC[C@H]21
- AC50 [18]: 6.41 µM (active)

SMILES: N#C[C@@H]1[C@H](c2ccccc2-c2ccc(F)cc2)[C@H](CO)N1C(=O)NC1CCCC1
- AC50 [18]: 5.12 µM (active)

SMILES: O=C(O)c1cccc(-n2cccc2/C=C2/NC(=O)N(c3cccc(Cl)c3)C2=O)c1
- IC50 [4]: 9.53 µM (active)
